The results in this text go back to patent publication US11771735B2, “Composition for improving or preventing nonalcoholic fatty liver” (KOHJIN LIFE SCIENCES CO., LTD., priority 2015, dated 2023).

The subject of experiment [1] is Mice (C57/B6J) fed with high-fat food. Particulars: 20 weeks old. An excerpt:
Mice (C57/B6J, 8 weeks old male) were divided into 4 groups (5 animals each), and the first group (DB) was freely fed with ordinary food (CertifiedDiet “MF” manufactured by Oriental Yeast Co., ltd.). The second group (HFD) was freely fed with high-fat food (High Fat Diet 32, manufactured by CLEA Japan, Inc.), […].
When the mouse was 20 weeks old, the body weight, the liver weight, the serum aspartate aminotransferase (AST), the alanine aminotransferase (ALT), the serum triglyceride (TG), the free fatty acid value (FFA) and the total cholesterol value (T-cho) were measured.

The test system of experiment [2] is subjects who had NAFLD in 31 IU/L or more of ALT. The conditions noted are these: Case IDs 1 to 9 (group affected); at least one week after initiation; oral 300 mg per day.
[3] abbreviates: HFD6 (6 mg/kg/day) and HFD60 (60 mg/kg/day) groups in comparison to HFD group.
Where [4] appears, read: high-fat food mice, glutathione 6 and 60 mg/kg/day in water.

In the case of `N[C@@H](CCC(=O)N[C@@H](CS)C(=O)NCC(=O)O)C(=O)O` [glutathione], in experiment [1] (setting [3]), the “serum ALT” value is listed as “significant decrease”, the “serum AST” value is recorded as “significant decrease”, the “serum FFA (free fatty acid value)” value is “significant decrease” and the “serum T-cho (total cholesterol value)” value is given as “significant decrease”. Moreover, in experiment [1] (setting [3]), the “serum TG (triglyceride value)” value is “significant decrease”. Besides, in experiment [1] (setting [4]), the liver weight entry is “the liver weight decreased dependently on the concentration” and the “ratio of liver weight/body weight” value is reported as “decrease of the body weight ratio was also recognized”. The body weight entry in experiment [1] (high-fat food mice, glutathione 6 or 60 mg/kg/day in water) is on record as “decrease of the body weight was recognized”. The “improvement of ALT after the administration versus before administration (0 wk)” value in experiment [2] is on record as at least 20%.
